In patent US20240408325A1, “HANDHELD MEDICAL DEVICE WITH IMPROVED DELIVERY OF AEROSOL PARTICLES” (ALEXZA PHARMACEUTICALS, INC., priority 2021, published 2024):
Structures can show the parent of a compound that is named as a salt.

Test: Purity of the aerosol versus drug foil temperature (Method 2)
Type: physicochemical
Conditions: Devices A, 1.0 mg coated
Method: Solutions were analysed by UPLC with water (ammonium formate/formic acid) and acetonitrile as mobile phase using UV detection at 275 nm as acquisition wavelength.
This method is based on the US Pharmacopeia “Sampling the Delivered Dose from Metered-Dose Inhalers” of the “Metered-Dose Inhalers and Dry Powder Inhalers” section.
The mouthpiece of the device to be tested was tightly attached to a mouthpiece adapter connected to an end of a 12 cm sample connection tube which at the other end has attached a filter support cap having a ø 47 mm, 2.2 μm pore size, quartz filter (QM-A, Whatman) which was connected to a pump to create an airflow which triggers the flow sensor and the foil substrate is heated.
The material in the filter and the sample connection tube was extracted with methanol and analysed as in Method 1.
The foil substrates of Devices A were coated with 1.0 mg of apomorphine HCl and tested as in Method 2 at different drug foil temperatures (2 devices per temperature point except 310° C. where 4 devices were used). The devices are triggered at a 30 mL/min airflow.

- TAerosol purity (drug foil 260 °C): 98.4 ± 0.6%
- TAerosol purity (drug foil 290 °C): 96.4 ± 0.9%
- TAerosol purity (drug foil 310 °C): 95 ± 1%
- TAerosol purity (drug foil 320 °C): 90.9 ± 0.8%
Compound: CN1CCc2cccc3c2[C@H]1Cc1ccc(O)c(O)c1-3 [apomorphine HCl]
